{"source": "ChEMBL document CHEMBL1156666", "about": "“Jerantinines A-G, cytotoxic Aspidosperma alkaloids from Tabernaemontana corymbosa” (J Nat Prod, 2008)", "key": {"[1]": {"assay": "Cytotoxicity against vincristine resistant human KB/VJ300 cells", "assay_type": "functional, cell-based"}, "[2]": {"assay": "Cytotoxicity against vincristine sensitive human KB/S cells", "assay_type": "functional, cell-based"}}}
{"smiles": "CC[C@]12C=CCN3CC[C@]4(C(=C(C(=O)OC)C1)Nc1cc(OC)c(OC)cc14)[C@@H]32", "note": "[10-O-METHYLJERANTININE A]", "values": [{"measurement": "IC50", "setting": "[1]", "value": 13.6, "unit": "µM"}, {"measurement": "IC50", "setting": "[2]", "value": 12, "unit": "µM"}]}
{"smiles": "CC[C@@]12CC(C(=O)OC)=C3Nc4cc(OC)c(OC)cc4[C@@]34CCN(C[C@@H]3O[C@@H]31)[C@@H]24", "note": "[10-O-METHYLJERANTININE B]", "values": [{"measurement": "IC50", "setting": "[1]", "value": 10.7, "unit": "µM"}, {"measurement": "IC50", "setting": "[2]", "value": 7.36, "unit": "µM"}]}
{"smiles": "CC[C@]12C=CCN3CC[C@]4(C(=C(C(=O)OC)C1)Nc1cc(OC)c(OC(C)=O)cc14)[C@@H]32", "note": "[JERANTININE A ACETATE]", "values": [{"measurement": "IC50", "setting": "[1]", "value": 0.83, "unit": "µM"}, {"measurement": "IC50", "setting": "[2]", "value": 1.04, "unit": "µM"}]}
{"smiles": "CC[C@]12C=CCN3CC[C@]4(C(=C(C(=O)OC)C1)Nc1cc(OC)c(O)cc14)[C@@H]32", "note": "[JERANTININE A]", "values": [{"measurement": "IC50", "setting": "[1]", "value": 1.73, "unit": "µM"}, {"measurement": "IC50", "setting": "[2]", "value": 1.99, "unit": "µM"}]}
{"smiles": "CC[C@@]12CC(C(=O)OC)=C3Nc4cc(OC)c(OC(C)=O)cc4[C@@]34CCN(C[C@@H]3O[C@@H]31)[C@@H]24", "note": "[JERANTININE B ACETATE]", "values": [{"measurement": "IC50", "setting": "[1]", "value": 0.75, "unit": "µM"}, {"measurement": "IC50", "setting": "[2]", "value": 0.7, "unit": "µM"}]}
{"smiles": "CC[C@@]12CC(C(=O)OC)=C3Nc4cc(OC)c(O)cc4[C@@]34CCN(C[C@@H]3O[C@@H]31)[C@@H]24", "note": "[JERANTININE B]", "values": [{"measurement": "IC50", "setting": "[1]", "value": 0.95, "unit": "µM"}, {"measurement": "IC50", "setting": "[2]", "value": 1.11, "unit": "µM"}]}
{"smiles": "CC[C@]12C=CC(=O)N3CC[C@]4(C(=C(C(=O)OC)C1)Nc1cc(OC)c(O)cc14)[C@@H]32", "note": "[JERANTININE C]", "values": [{"measurement": "IC50", "setting": "[1]", "value": 1.54, "unit": "µM"}, {"measurement": "IC50", "setting": "[2]", "value": 0.81, "unit": "µM"}]}
{"smiles": "CC[C@@]12CC(C(=O)OC)=C3Nc4cc(OC)c(O)cc4[C@@]34CCN(C(=O)[C@@H]3O[C@@H]31)[C@@H]24", "note": "[JERANTININE D]", "values": [{"measurement": "IC50", "setting": "[1]", "value": 0.95, "unit": "µM"}, {"measurement": "IC50", "setting": "[2]", "value": 0.68, "unit": "µM"}]}
{"smiles": "CC[C@]12CCCN3CC[C@]4(C(=C(C(=O)OC)C1)Nc1cc(OC)c(O)cc14)[C@@H]32", "note": "[JERANTININE E]", "values": [{"measurement": "IC50", "setting": "[1]", "value": 2.03, "unit": "µM"}, {"measurement": "IC50", "setting": "[2]", "value": 2.55, "unit": "µM"}]}
{"smiles": "COC(=O)C1=C2Nc3cc(OC)c(O)cc3[C@@]23CCN2CC[C@@H]4OCC[C@]4(C1)[C@H]23", "note": "[JERANTININE F]", "values": [{"measurement": "IC50", "setting": "[1]", "value": 12.3, "unit": "µM"}, {"measurement": "IC50", "setting": "[2]", "value": 12.8, "unit": "µM"}]}
{"smiles": "CC[C@]1(O)C[C@H]2CN(CCc3c([nH]c4ccccc34)[C@@](C(=O)OC)(c3cc4c(cc3OC)N(C=O)[C@H]3[C@@](O)(C(=O)OC)[C@H](OC(C)=O)[C@]5(CC)C=CCN6CC[C@]43[C@@H]65)C2)C1", "note": "[VINCRISTINE]", "values": [{"measurement": "IC50", "setting": "[1]", "value": 1.2, "unit": "µM"}, {"measurement": "IC50", "setting": "[2]", "value": 0.0054, "unit": "µM"}]}
